Tests used:
[1] = molecular target: T1, B1R receptor of the rat (rB1R) (Rattus norvegicus, UniProt P97583); test: FLIPR Ca2+ functional study on bradykinin receptor 1, rB1R cells (CHO K1); format: cell-based; conditions: 10 μM test substance, CHO K1 cells with rat B1R, agonist Des-Arg9-bradykinin at EC80; for inhibition at 10 µM: read-out: B1R antagonism, rat [10 μM] % inhibition
T1 construct: expressed in transfected cells; host or cells: CHO K1 cells, stably transfected
T1 sequence (P97583 1-337): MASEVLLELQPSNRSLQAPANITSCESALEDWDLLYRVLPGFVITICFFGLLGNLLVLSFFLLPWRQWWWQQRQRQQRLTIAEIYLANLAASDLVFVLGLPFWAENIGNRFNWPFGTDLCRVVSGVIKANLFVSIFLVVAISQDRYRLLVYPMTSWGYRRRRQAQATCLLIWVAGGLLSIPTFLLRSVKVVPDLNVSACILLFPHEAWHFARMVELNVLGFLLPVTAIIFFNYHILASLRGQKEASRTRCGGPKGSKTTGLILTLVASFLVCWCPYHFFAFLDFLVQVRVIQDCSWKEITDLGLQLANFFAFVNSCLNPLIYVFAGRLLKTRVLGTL
Procedure, shortened: (§1)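 Stably transfected CHO K1 cells loaded with Fluo-4; FLIPR Ca2+ fluorescence (ex 488/em 540 nm, peak counts). Compounds (10 μM, or concentration series for IC50) preincubated 10–20 min, then EC80 agonist added (human: Lys-Des-Arg9-bradykinin; rat: Des-Arg9-bradykinin); % inhibition versus maximum achievable, n=2–3, N≥2.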

[2] = molecular target: T2, human B1R receptor (hB1R) (Homo sapiens, UniProt P46663); test: FLIPR Ca2+ functional study on bradykinin receptor 1, hB1R cells (CHO K1); format: cell-based; conditions: CHO K1 cells with human B1R, agonist Lys-Des-Arg9-bradykinin at EC80; for inhibition at 10 µM: CHO-K1, 10 μM test substance, read-out: B1R antagonism, human [10 μM] % inhibition; for B1R antagonism, human [10 μM] % inhibition: 10 μM test substance
T2 construct: expressed in transfected cells; host or cells: CHO K1 cells, stably transfected
T2 sequence (P46663 1-353): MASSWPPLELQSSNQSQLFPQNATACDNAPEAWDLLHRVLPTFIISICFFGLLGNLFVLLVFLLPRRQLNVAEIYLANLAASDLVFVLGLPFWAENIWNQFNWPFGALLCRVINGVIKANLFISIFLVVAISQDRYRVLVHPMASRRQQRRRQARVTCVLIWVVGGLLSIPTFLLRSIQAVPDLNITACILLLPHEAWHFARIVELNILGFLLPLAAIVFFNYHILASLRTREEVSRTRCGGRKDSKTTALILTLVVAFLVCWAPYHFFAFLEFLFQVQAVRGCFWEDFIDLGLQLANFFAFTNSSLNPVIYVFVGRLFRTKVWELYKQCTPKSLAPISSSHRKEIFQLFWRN
Procedure, shortened: as §1

Structure (SMILES) | inhibition at 10 µM [1] [%] | inhibition at 10 µM [2] [%] | B1R antagonism, rat [10 μM] % inhibition [1] [%] | B1R antagonism, human [10 μM] % inhibition [2] [%]
O=C(c1ccc2c(c1)CN(C(=O)c1ccc(Cl)s1)C2)N1CCC2(CC1)CCN(c1ccncc1)CC2 [Compound G-69, [2-(5-Chloro-thiophene-2-carbonyl)-2,3-dihydro-1H-isoindol-5-yl]-(9-pyridin-4-yl-3,9-diazaspiro[5.5]undecan-3-yl)-methanone] | 70 | 99 |  | 
COc1cc(C)c(S(=O)(=O)N2CCCc3ccc(CC(=O)N4CCC5(CC4)CCN(c4ccncc4)CC5)nc32)c(C)c1 [Compound G-70, 2-[8-[(4-Methoxy-2,6-dimethyl-phenyl)sulfonyl]-5,6,7,8-tetrahydro-[1,8]naphthyridin-2-yl]-1-(9-pyridin-4-yl-3,9-diazaspiro[5.5]undecan-3-yl)-ethanone] | 101 | 88 |  | 
O=C(c1cn2c(n1)CN(C(=O)c1ccc(Cl)s1)CC2)N1CCC2(CC1)CCN(c1ccncc1)CC2 [Compound G-71, [7-(5-Chloro-thiophene-2-carbonyl)-5,6,7,8-tetrahydro-imidazo[1,2-a]pyrazin-2-yl]-(9-pyridin-4-yl-3,9-diazaspiro[5.5]undecan-3-yl)-methanone] | 80 | 91 |  | 
COc1cc(C)c(S(=O)(=O)N2CCn3cnc(C(=O)N4CCC5(CC4)CCN(c4ccncc4)CC5)c3C2)c(C)c1 [Compound G-72, [7-[(4-Methoxy-2,6-dimethyl-phenyl)sulfonyl]-5,6,7,8-tetrahydro-imidazo[1,5-a]pyrazin-1-yl]-(9-pyridin-4-yl-3,9-diazaspiro[5.5]undecan-3-yl)-methanone] | 104 | 100 |  | 
COc1cc(C)c(C(=O)N2Cc3ccc(C(=O)N4CCC5(CC4)CCN(c4ccncc4)CC5)cc3C2)c(C)c1 [Compound G-73, [2-(4-Methoxy-2,6-dimethyl-benzoyl)-2,3-dihydro-1H-isoindol-5-yl]-(9-pyridin-4-yl-3,9-diazaspiro[5.5]undecan-3-yl)-methanone] | 13 | 85 |  | 
Cc1cc(S(=O)(=O)N2CCc3ccc(C(=O)N4CCC5(CC4)CCN(c4ccncc4)CC5)cc32)c(C)cc1Cl [G_CC-013, (1-(4-Chloro-2,5-dimethylphenylsulfonyl)indolin-6-yl)(9-(pyridin-4-yl)-3,9-diazaspiro[5.5]undecan-3-yl)methanone] | 99 | 87 |  | 
COc1cc(C)c(S(=O)(=O)N2CCCc3ccc(CC(=O)N4CCC5(CC4)CCN(c4ccncc4)CC5)cc32)c(C)c1 [G_CC-055, 2-[1-[(4-Methoxy-2,6-dimethyl-phenyl)sulfonyl]-1,2,3,4-tetrahydro-quinolin-7-yl]-1-(3-pyridin-4-yl-3,9-diazaspiro[5.5]undecan-9-yl)-ethanone] |  |  | 98 | 96
COc1cc(C)c(S(=O)(=O)N2CCCc3ccc(C(=O)N4CCC5(CC4)CCN(c4ccncc4)CC5)cc32)c(C)c1 [G_CC-056, [1-[(4-Methoxy-2,6-dimethyl-phenyl)sulfonyl]-1,2,3,4-tetrahydro-quinolin-7-yl]-(3-pyridin-4-yl-3,9-diazaspiro[5.5]undecan-9-yl)-methanone] |  |  | 100 | 98

— patent US8357717B2, “Spiro group-containing amide compounds having bradykinin 1 receptor (B1R) activity” (Gruenenthal GmbH, priority 2009, dated 2013)
